Drawing on ChEMBL document CHEMBL3580643, “Structure-Activity Relationships of Neplanocin A Analogues as S-Adenosylhomocysteine Hydrolase Inhibitors and Their Antiviral and Antitumor Activities” (J Med Chem, 2015), this text covers IC50, EC50 and Activity for 15 molecules.

As usually defined, the IC50 is the point on the concentration scale where inhibition reaches its midpoint. Usually EC50 stands for the concentration giving half of the maximal effect.

Each structure is given as a SMILES string.

For series [1], the system named is MDA-MB-231. Put plainly: Cytotoxicity against human MDA-MB-231 cells assessed as inhibition of cell proliferation after 72 hrs by sulforhodamine B assay. The series is classed as functional, cell-based. The settings on record: MDA-MB-231, 72 h.
The test system of series [2] is HCT-116. As to the kind of experiment: Cytotoxicity against human HCT116 cells assessed as inhibition of cell proliferation after 72 hrs by sulforhodamine B assay. To be noted: HCT-116, 72 h. In kind it is functional, cell-based.
For series [3], the system named is PC-3. As to the kind of experiment: Cytotoxicity against human PC3 cells assessed as inhibition of cell proliferation after 72 hrs by sulforhodamine B assay. The series is classed as functional, cell-based. To be noted: PC-3, 72 h. For orientation: The SRB assay estimates cell density from bound dye.
A short description of series [4]: Cytotoxicity against human SKHEP1 cells assessed as inhibition of cell proliferation after 72 hrs by sulforhodamine B assay. In kind it is functional, cell-based. The settings on record: SK-HEP1, 72 h.
Series [5] in a line: Cytotoxicity against human SNU638 cells assessed as inhibition of cell proliferation after 72 hrs by sulforhodamine B assay. In kind it is functional, cell-based. The settings on record: SNU-638, 72 h.
Series [6] has as its target Adenosylhomocysteinase (Homo sapiens, UniProt P23526). Put plainly: Inhibition of recombinant human placental AdoHcy hydrolase expressed in Escherichia coli BL21 using AdoHcy as substrate preincubated for 10 mins followed by substrate addition measured after 20 mins by DTNB coupled assay.
Series [7] concerns A549. As to the kind of experiment: Cytotoxicity against human A549 cells assessed as inhibition of cell proliferation after 72 hrs by sulforhodamine B assay. In kind it is functional, cell-based. The settings on record: A549, 72 h.
For series [8], the system named is Picornaviridae. Put plainly: Antiviral activity against picornavirus infected in CB1 cells assessed as inhibition of viral replication after 3 days by MTT assay. The series is classed as functional, organism-based. To be noted: CB1, 72 h. In general terms: Formazan colour is commonly taken as a measure of viable cells.
The nature of series [9]: Cytotoxicity against CB1 cells (unknown origin) assessed as cell viability up to 100 uM after 3 days by MTT assay. The settings on record: cb1, 72 h. In kind it is cell-based.
The test system of series [10] is Vesicular stomatitis virus. As to the kind of experiment: Antiviral activity against vesicular stomatitis virus infected in human HeLa cells assessed as inhibition of viral replication after 3 days by MTT assay. The settings on record: 72 h. In kind it is functional, organism-based.
For series [11], the system named is HeLa. Put plainly: Cytotoxicity against human HeLa cells assessed as cell viability up to 40 uM after 3 days by MTT assay. In kind it is cell-based. The settings on record: 72 h.

Adenosylhomocysteinase, sequence (P23526 whole entry): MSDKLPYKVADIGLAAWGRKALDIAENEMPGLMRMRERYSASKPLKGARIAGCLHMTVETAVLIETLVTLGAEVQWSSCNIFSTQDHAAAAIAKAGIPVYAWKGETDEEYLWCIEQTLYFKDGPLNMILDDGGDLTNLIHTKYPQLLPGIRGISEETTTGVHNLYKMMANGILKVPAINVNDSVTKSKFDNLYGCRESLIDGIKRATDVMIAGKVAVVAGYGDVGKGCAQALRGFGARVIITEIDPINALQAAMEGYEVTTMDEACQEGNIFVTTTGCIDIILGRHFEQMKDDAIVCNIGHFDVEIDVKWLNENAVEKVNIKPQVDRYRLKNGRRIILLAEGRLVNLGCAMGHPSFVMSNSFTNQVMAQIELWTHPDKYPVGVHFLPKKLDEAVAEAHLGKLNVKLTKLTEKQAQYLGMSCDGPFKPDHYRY

As to `CNc1ncnc2c1ccn2[C@@H]1C=C(CO)[C@@H](O)[C@H]1O`, the IC50 in series [1] is 49.5 µM; in series [2] it was over 100 µM; in [3], over 100 µM; in [4], 99.2 µM; in series [5] it was over 100 µM; in series [6], over 100 µM. The IC50 in [7] is over 100 µM.
With `OCC1=C[C@@H](n2ccc3c(O)ncnc32)[C@H](O)[C@@H]1O`, the IC50 in [1], in [2], in [3], in series [4], in series [5] and in series [6] was over 100 µM each time. For the same molecule, the IC50 in series [7] is over 100 µM.
In the case of `CNc1ncnc2c1ccn2[C@@H]1C(F)=C(CO)[C@@H](O)[C@H]1O`, the IC50 in series [1], in [2], in series [3], in series [4], in series [5] and in series [6] was over 100 µM throughout. For the same molecule, in series [7], the IC50 was over 100 µM.
As to `COc1cc([C@@H]2c3cc4c(cc3[C@@H](O[C@@H]3O[C@@H]5CO[C@@H](C)O[C@H]5[C@H](O)[C@H]3O)[C@H]3COC(=O)[C@H]23)OCO4)cc(OC)c1O` [ETOPOSIDE], the IC50 in [1] worked out at 7.7 µM; in [4], 2.8 µM; in series [5], 0.3 µM; in series [7], 0.4 µM.
For `Nc1ncnc2c1ccn2[C@@H]1C=C(CCO)[C@@H](O)[C@H]1O`, the IC50 was 26.3 µM in series [1]; 32 µM in [2]; over 100 µM in series [3]; 42.1 µM in [4]; 30.2 µM in [5]; over 100 µM in series [6]. Besides, the IC50 in [7] came to 34 µM.
For `Nc1ncnc2c1ncn2[C@@H]1C=C(CCO)[C@@H](O)[C@H]1O`, the IC50 in [1] is 2.64 µM; in series [2], 1.72 µM; in [3], over 100 µM; in series [4] it was 6.12 µM; in [5], 2.31 µM; in [7], 8.95 µM.
Consider `Nc1ncnc2c1ccn2C1C=C(CO)[C@@H](O)[C@H]1O` (single isomer, unassigned) [DEAZANEPLANOCIN A], for which the IC50 was 0.79 µM in [1]; 10.4 µM in [2]; 1.62 µM in series [3]; 1.17 µM in [4]; 1.2 µM in series [5]; over 100 µM in [6]. For the same molecule, the IC50 in [7] worked out at 1.84 µM.
Take `Nc1ncnc2c1ccn2[C@@H]1C(F)=C(CO)[C@@H](O)[C@H]1O`: the EC50 in series [8] amounted to 2.34 µM. Moreover, the IC50 is 0.94 µM in [1]; 0.94 µM in [2]; 1.3 µM in series [3]; 1.39 µM in series [4]; 0.96 µM in series [5]; over 100 µM in [6]. For the same molecule, the IC50 in [7] stood at 16.8 µM. The Activity entry in [9] was “Non-toxic”.
Consider `Nc1nccc2c1ncn2[C@@H]1C=C(CO)[C@@H](O)[C@H]1O`, for which the IC50 in [1] was found to be 0.3 µM; in series [2], 0.26 µM; in [3] it was 9.39 µM; in series [4] it was 0.72 µM; in series [5], 0.91 µM; in series [7], 1.4 µM.
In the case of `Nc1nccc2c1ncn2[C@@H]1C=C(CCO)[C@@H](O)[C@H]1O`, the IC50 is 8.01 µM in [1]; 17.9 µM in [2]; over 100 µM in [3]; 28.9 µM in series [4]; 28.2 µM in [5]; 3.76 µM in series [6]. Moreover, the IC50 in [7] is 76.5 µM.
Consider `OCC1=C(F)[C@@H](n2ccc3c(O)ncnc32)[C@H](O)[C@@H]1O`, for which the IC50 in series [1], in series [2], in [3], in [4], in [5] and in [6] was over 100 µM in each case. Further, the IC50 in [7] is over 100 µM.
Consider `Nc1ncnc2c1ncn2[C@@H]1C(F)=C(CO)[C@@H](O)[C@H]1O` [FLUORO-NEPLANOCIN A], for which the concentration for half-maximal inhibition (IC50) was 1.4 µM in series [1]; 2.8 µM in [2]; 1.4 µM in series [3]; 0.8 µM in [4]; 2.2 µM in series [5]; 0.24 µM in series [6]. In addition, the IC50 in series [7] is 1.2 µM. In addition, the EC50 in [10] stood at 0.43 µM. The Activity result in series [11] is on record as “Non-toxic”.
Consider `Nc1ncnc2c1ncn2[C@@H]1C(F)=C(CCO)[C@@H](O)[C@H]1O`, for which the IC50 is 6.95 µM in [1]; 2.9 µM in [2]; over 100 µM in series [3]; 8.07 µM in [4]; 3.73 µM in [5]; 0.91 µM in series [6]. Also, in series [7], the IC50 turned out to be 11.7 µM.
On to `Nc1ncnc2c1ncn2[C@@H]1C=C(CO)[C@@H](O)[C@H]1O` [NEOPLANOCIN A], for which the IC50 in series [1] was 0.4 µM; in series [2] it was 0.9 µM; in [3], 3.7 µM; in series [4], 4.5 µM; in series [5], 0.7 µM; in series [6], 0.47 µM. Besides, the IC50 in series [7] came to 1.22 µM.
Take `Nc1ccn([C@@H]2O[C@H](CO)[C@@H](O)[C@@H]2O)c(=O)n1` [CYTARABINE]: the IC50 in series [1] was determined as 1.37 µM; in series [2], 2.42 µM; in [3] it was 50.5 µM; in [4], 2.12 µM; in series [5], 3.98 µM; in series [7], 1.2 µM.
